Laboratory results as given in patent US10004701B2, “Methods and compositions for treating infection” (UNIVERSITY OF ROCHESTER, priority 2012, dated 2018).
Converted amounts (≈) assume the structure as drawn. Where two headings read alike, the source gives them in different places.

Legend:
[1] = test system: S. aureus strain UAMS-1 static biofilms; experiment: AK assay of established biofilms (with plating); assay type: cell-based, Staphylococcus aureus; conditions: 10×MIC; for decrease in biofilm-associated bacteria / biofilm cell viability (plating): S. aureus UAMS-1 48-h biofilm, vs untreated
[2] = test system: S. aureus SCV strain UAMS-1112; experiment: Small-colony variant AK assay (with plating); assay type: cell-based, Staphylococcus aureus
Protocol: Thirty-six-hour cultures of S. aureus strain UAMS-1112 were used to inoculate (1:100 dilution) 100 ml of fresh MH medium and grown at 37° C. on a rotary shaker at 225 rpm to an optical density (600 nm) of 0.1 to 0.2, corresponding to ˜1×10^6 CFU ml^−1. Cells were pelleted by centrifugation and resuspended in 2 ml of fresh MH medium. Ninety-eight microliters of MH medium containing 5×10^6 bacteria and 2 μl of the indicated antibiotic were added to individual wells of a white-walled, 96-well microtiter plate. Well components were mixed by pipetting and incubated at 37° C. for 3 h. The plate was equilibrated to room temperature for 30 min. Next, 100 μl of ToxiLight AK reagent was added to each well, followed by incubation at room temperature for 30 min, and luminescence was measured using a SpectraMax M5 plate reader.
SCV are slow-growing populations of bacterial species that have been hypothesized to cause latent or recurrent infections and are tolerant of standard antibiotic treatment regimens. Based on the aberrant SCV growth characteristics, typical growth-based HTS assays would be difficult to employ. Accordingly, the ability of the AK assay to identify agents that kill S. aureus SCV strain UAMS-1112 was tested. […].

[3] = test system: Enterococcus faecium 824-05; experiment: MIC testing; assay type: cell-based
Staphylococcus aureus = experiment: MIC testing; assay type: cell-based
[4] = test system: Klebsiella pneumoniae cKP1; experiment: MIC testing; assay type: cell-based
[5] = test system: Acinetobacter baumannii 98-37-09; experiment: MIC testing; assay type: cell-based
[6] = test system: Pseudomonas aeruginosa PA01; experiment: MIC testing; assay type: cell-based
[7] = test system: Enterobacter cloacae PMD1001; experiment: MIC testing; assay type: cell-based
Escherichia coli 8295 [8] = experiment: MIC testing; assay type: cell-based
[9] = test system: Enterococcus faecium 824-05; experiment: AK assay 96-well format; assay type: cell-based
[10] = test system: Klebsiella pneumoniae cKP1; experiment: AK assay 96-well format; assay type: cell-based
[11] = test system: Pseudomonas aeruginosa PA01; experiment: AK assay 96-well format; assay type: cell-based
[12] = test system: Enterobacter cloacae PMD1001; experiment: AK assay 96-well format; assay type: cell-based
Escherichia coli 8295 [13] = experiment: AK assay 96-well format; assay type: cell-based
E. faecium = experiment: AK assay 384-well format, Prestwick library screening; assay type: cell-based, Enterococcus faecium; conditions: E. faecium; 50 μM, cutoff 3-fold increase in AK
E. faecium strain 824-05 = experiment: Galleria mellonella model of E. faecium infection; assay type: in vivo; conditions: larval survival 48 h postinoculation
[14] = test system: Acinetobacter baumannii 98-37-09; experiment: AK assay 96-well format; assay type: cell-based; conditions: for Fold increase in AK signal: Acinetobacter baumannii 98-37-09
[15] = test system: A. baumannii strain 98-37-09 static biofilms; experiment: AK assay of established biofilms (with plating); assay type: cell-based, Acinetobacter baumannii; conditions: A. baumannii 98-37-09 biofilm; 10×MIC overnight; vs untreated
Protocol: Biofilms were grown as previously described (Beenken et al. Infect. Immun. 71: 4206-4211 (2003); Musken et al. Nat. Protoc. 5: […] (2010); Tomaras et al. Microbiology 149: 3473-3483 (2003)). Briefly, P. aeruginosa and A. baumannii were cultured overnight in Luria-Bertani medium and then used to seed 96-well, flat-bottom plates. Plates were incubated at 37° C. in a humidified incubator for 48 h to allow the formation of static biofilms. Nonadherent cells were removed by aspiration and washing with sterile phosphate-buffered saline (PBS). […] Following treatment, 100 μl of each biofilm supernatant was transferred to 96-well, white-walled plates, 100 μl of ToxiLight AK reagent was added to each well, mixtures were incubated for 30 min at room temperature, and luminescence was measured using a SpectraMax M5 plate reader. Biofilm-associated bacteria were enumerated by resuspending each biofilm in fresh PBS and plating. […] Established S. aureus biofilms were washed once with PBS and then treated with a 100 μl of ToxiLight lysis buffer for 3 h, after which the amount of AK released into supernatants was measured, as described above.
Following overnight antibiotic treatment, biofilm-associated bacteria were enumerated by plating, and the corresponding supernatants were analyzed by the AK assay.

[16] = S. aureus UAMS-1112, 1× or 10×MIC for 3 h
[17] = 82405, Enterococcus faecium 824-05, read-out: MIC
[18] = Staphylococcus aureus USA300-0114, read-out: MIC
[19] = 983709, Acinetobacter baumannii 98-37-09, read-out: MIC
[20] = Klebsiella pneumoniae cKP1, read-out: MIC

Row | Molecule | decrease in SCV viability (plating) [2, 16] | increase in AK signal compared to mock-treated cells [2, 16] | MIC [3, 17] [µg/mL] | MIC (Staphylococcus aureus; Staphylococcus aureus) [µg/mL] | MIC (Staphylococcus aureus; [18]) [µg/mL] | MIC [5, 19] [µg/mL] | MIC [6] [µg/mL] | MIC [7] [µg/mL] | MIC (Escherichia coli 8295 [8]) [µg/mL] | Fold increase in AK signal ([9]; treatment 0.5×MIC) [fold] | Fold increase in AK signal ([9]; treatment 1.0×MIC) [fold] | Fold increase in AK signal ([10]; treatment 1.0×MIC) [fold] | Fold increase in AK signal ([11]; treatment 0.5×MIC) [fold] | Fold increase in AK signal ([11]; treatment 1.0×MIC) [fold] | Fold increase in AK signal ([12]; treatment 0.5×MIC) [fold] | Fold increase in AK signal ([12]; treatment 1.0×MIC) [fold] | Fold increase in AK signal (Escherichia coli 8295 [13]; treatment 0.5×MIC) [fold] | Fold increase in AK signal (Escherichia coli 8295 [13]; treatment 1.0×MIC) [fold] | other results
1 | O=C(O)c1cn(C2CC2)c2cc(N3CCNCC3)c(F)cc2c1=O [Ciprofloxacin, ciprofloxacin] | no effect | no change | – | – | – | – | – | – | – | – | – | – | – | – | – | – | – | – | decrease in biofilm-associated bacteria / biofilm cell viability (plating) [1]: 0.7 log
2 | CC(=O)NC[C@H]1CN(c2ccc(N3CCOCC3)c(F)c2)C(=O)O1 [Linezolid, linezolid] | – | – | 16 (≈ 47.4 µM) | 2 (≈ 5.93 µM) | 2 (≈ 5.93 µM) | 256 (≈ 759 µM) | > 256 | > 256 | > 256 | 2 | 2 | – | – | – | – | – | – | – | MIC ([4]; Klebsiella pneumoniae, CKP1): > 256 µg/mL
3 | C[C@@H](O)[C@H]1C(=O)N2C(C(=O)O)=C(S[C@@H]3CN[C@H](C(=O)N(C)C)C3)[C@H](C)[C@H]12 [Meropenem, meropenem] | 0.5 log | 2.5 fold | – | 2 (≈ 5.22 µM) | 4 (≈ 10.4 µM) | 2 (≈ 5.22 µM) | – | – | – | – | – | 220 | 45 | 39 | 99 | 296 | 60 | 85 | MIC ([3]; Enterococcus faecium, 82405): > 256 µg/mL; MIC [4, 20]: 2 µg/mL (≈ 5.22 µM); MIC ([6]; read-out: MIC): 2 µg/mL (≈ 5.22 µM); MIC ([7]; read-out: MIC): 2 µg/mL (≈ 5.22 µM); MIC (Escherichia coli 8295 [8]; read-out: MIC): 2 µg/mL (≈ 5.22 µM)
4 | CN(C)c1ccc(O)c2c1C[C@H]1C[C@H]3[C@H](N(C)C)C(O)=C(C(N)=O)C(=O)[C@@]3(O)C(O)=C1C2=O [Minocycline, minocycline] | – | – | 1 (≈ 2.19 µM) | 8 (≈ 17.5 µM) | 1 (≈ 2.19 µM) | 1 (≈ 2.19 µM) | – | – | – | 3 | 4 | 1 | 1 | 6 | 4 | 9 | 4 | 38 | MIC [4, 20]: 64 µg/mL (≈ 140 µM); MIC ([6]; read-out: MIC): 32 µg/mL (≈ 69.9 µM); MIC ([7]; read-out: MIC): 4 µg/mL (≈ 8.74 µM); MIC (Escherichia coli 8295 [8]; read-out: MIC): 16 µg/mL (≈ 35 µM); Fold increase in AK signal ([10]; treatment 0.5×MIC): 1 fold
5 | CC/C(=C(\c1ccccc1)c1ccc(OCCN(C)C)cc1)c1ccccc1 [Tamoxifen, tamoxifen] | – | – | 8 (≈ 21.5 µM) | – | – | – | – | – | – | – | – | – | – | – | – | – | – | – | activity in AK Prestwick screen (E. faecium): identified; higher survival than vehicle-treated controls (E. faecium strain 824-05; 80 mg kg-1 at 2 h and 24 h): 4.2 fold; higher survival than vehicle-treated controls (E. faecium strain 824-05; 160 mg kg-1 at 2 h and 24 h): 7 fold
6 | CC(C)(C)c1ccc(C(O)CCCN2CCC(C(O)(c3ccccc3)c3ccccc3)CC2)cc1 (stereo not shown) [Terfenadine] | – | – | – | – | – | 64 (≈ 136 µM) | – | – | – | – | – | – | – | – | – | – | – | – | MIC (Staphylococcus aureus; Staphylococcus aureus, S. aureus UAMS-1112 (small-colony variant), read-out: MIC): 2 µg/mL (≈ 4.24 µM); increase in AK release ([1]; 48-h S. aureus UAMS-1 biofilms): 2.7 fold; decrease in biofilm-associated bacteria / biofilm cell viability (plating) [1]: 1.1 log; increase in AK signal compared to mock-treated cells ([2]; S. aureus small-colony-variant UAMS-1112, 10×MIC): 3.3 fold
7 | CN[C@H](CC(C)C)C(=O)N[C@H]1C(=O)N[C@@H](CC(N)=O)C(=O)N[C@H]2C(=O)N[C@H]3C(=O)N[C@H](C(=O)N[C@H](C(=O)O)c4cc(O)cc(O)c4-c4cc3ccc4O)[C@H](O)c3ccc(c(Cl)c3)Oc3cc2cc(c3O[C@@H]2O[C@H](CO)[C@@H](O)[C@H](O)[C@H]2O[C@H]2C[C@](C)(N)[C@H](O)[C@H](C)O2)Oc2ccc(cc2Cl)[C@H]1O [Vancomycin, vancomycin] | no effect | no change | – | 2 (≈ 1.38 µM) | – | – | > 256 | > 256 | 16 (≈ 11 µM) | 1 | 2 | – | – | – | – | – | 1 | 2 | MIC ([3]; Enterococcus faecium, 82405): 2 µg/mL (≈ 1.38 µM); MIC (Staphylococcus aureus; Staphylococcus aureus, USA300): 1 µg/mL (≈ 0.69 µM); MIC ([4]; Klebsiella pneumoniae, CKP1): > 256 µg/mL; MIC ([5]; Acinetobacter baumannii, 983709): 64 µg/mL (≈ 44.2 µM)
8 | colistin | – | – | – | – | – | – | 4 | 2 | 8 | – | – | 33 | 5 | 12 | 10 | 32 | 15 | 22 | MIC ([3]; Enterococcus faecium 824-05): >256 µg/mL; MIC (Staphylococcus aureus; Staphylococcus aureus RN4220): >256 µg/mL; MIC (Staphylococcus aureus; Staphylococcus aureus USA300-0114): >256 µg/mL; MIC ([4]; Klebsiella pneumoniae cKP1): 8 µg/mL; MIC ([5]; Acinetobacter baumannii 98-37-09): 4 µg/mL; Fold increase in AK signal ([10]; treatment 0.5×MIC): 34 fold; AK release ([14]; A. baumannii 98-37-09, 0.25×, 0.5×, and 1×MIC): robustly detected; Fold increase in AK signal ([14]; treatment 0.5×MIC): 17 fold; Fold increase in AK signal ([14]; treatment 1.0×MIC): 49 fold; decrease in biofilm-associated bacteria (plating) [15]: 1.8 log
